Measured values published in patent publication US20230071283A1, “COMPOSITIONS AND METHODS FOR SELECTIVE PROTEIN EXPRESSION” (Novartis AG, priority 2017, published 2023).
Entries after “also recorded” stand apart in the source; their conditions may differ.

Columns and labels:
CD19 sCAR T cells [1] = test: In vivo depletion of CD19 sCAR T cells by AP1903 in Nalm6-injected mice
Method: FIG. 40 is a series of flow cytometry graphs depicting that the suicide activation results in pheripheral depletion of the suicide CAR T cells. Mice were injected with Nalm6 cells and after 5 days were treated with 19 s CAR T cells. CD19s CAR T cells were sorted before injection based on scFV expression. Flow plots show peripheral T cells (CD3+, CD45+) on day 8 and day 26. CD19 sCAR T cells were depleted on day 10 by injection of AP1903 (10 mg/kg).
The quantification of T cells was done from several mice. Mice were treated with AP1903 on day 10 to deplete sCAR T cells.

universal sCAR T cells = test: Depletion of universal sCAR T cells by AP1903 in BT mice (qPCR, peripheral blood); type: in vivo; conditions: 4 weeks after AP1903 treatment (3 daily injections with 10 mg/kg)
Method: FIG. 44 is a schematic timeline of the experimental design of the in vivo experiment of the present invention. Using BT (bone marrow, liver, and thymus) mice for assessment of universal sCAR function in a non-oncology mouse model. Human fetal bone marrow and thymus were implanted into NSG mice on day −91. Validation of engraftment was done by flow cytometry on day −27. Universal T cells expressing CD19 sCAR T cells were injected on day 0, B cell depletion was assessed on day 10 and mice were treated with AP1903 (3 daily injections with 10 mg/kg). sCAR survival was assessed with qPCR.
A qPCR from peripheral blood WPRE copy number was performed with a gDNA, 4 weeks after AP1903 treatment.

nontransduced T cells = test: AP20187 treatment of T cells not expressing inducible caspase-9; type: cell-based, human; conditions: 16 hours at 37° C.
Method: (§1) CAR T cells were incubated in the presence of the indicated concentrations of AP20187 for 16 hours at 37° C. Dead cells were detected with live/dead-violet dye and quantified by flow cytometry. Only T cells that expressed the inducible caspase were eliminated (FMC63 iC9 or CD19 sCAR, as well as iC9 control CAR).
(§2) Elimination of CD19 CAR T cells. CD19 sCAR T cells were incubated in the presence of the indicated concentrations AP20187 for 16 hours at 37° C. Dead cells were detected with live/dead-violet dye and quantified by flow cytometry.

CD19 sCAR T cells [2] = test: Elimination of CD19 sCAR T cells by AP20187 (live/dead-violet dye, flow cytometry); type: cell-based, human; conditions: 16 hours at 37° C.
Method: as §1, §2

[3] = target: T1, ERαFD furin degron domain fused to an anti-CD19 scFv CAR (Homo sapiens, UniProt P03372, G521R/L384M/M421G/N519S/T371A/Y537S); test: CAR expression by FACS in Jurkat T cells transduced with ERαFD furin degron-anti-CD19 scFv CAR; type: cell-based; conditions: 1 μM, 24 hours
T1 construct: signal peptide (CD8 leader) followed by Arg-Ser linker (N); furin cleavage site (C); anti-CD19 scFv CAR (CD8 hinge, 4-1BB, CD3zeta) (C); expressed in transfected cells; host or cells: Jurkat T cells, lentiviral transduction
T1 sequence (P03372 305-549 T371A/L384M/M421G/N519S/G521R/Y537S): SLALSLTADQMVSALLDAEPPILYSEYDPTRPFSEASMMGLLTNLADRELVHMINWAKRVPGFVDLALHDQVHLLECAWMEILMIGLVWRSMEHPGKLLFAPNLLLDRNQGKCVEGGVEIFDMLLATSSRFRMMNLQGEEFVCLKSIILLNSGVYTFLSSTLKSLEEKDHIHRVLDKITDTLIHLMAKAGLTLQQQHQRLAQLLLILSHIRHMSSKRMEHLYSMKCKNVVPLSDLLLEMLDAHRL

CD20 on-CAR = CD20 on-CAR surface expression (MFI, flow cytometry) versus Shield-1 concentration; type: cell-based
Text: FIG. 36 is series of graphs illustrating the modulation of CAR surface expression with FKBP ligand Shield-1. CD20 on-CAR T cells were stained for CAR expression and the mean fluorescence intensity (MFI, assessed by flow cytometry) of the CAR signal was plotted against the Shield-1 concentration. […] Absence of Shield-1 results in ˜60% reduction of CD20 on-CAR expression (bottom graph).

[4] = target: T2, FKBPFD furin degron domain fused to an anti-CD19 scFv CAR (Homo sapiens, UniProt P62942, F37V); test: CAR expression by FACS in Jurkat T cells transduced with FKBPFD furin degron-anti-CD19 scFv CAR; type: cell-based; conditions: 1 μM Shield1
T2 construct: signal peptide (CD8 leader) (N); furin cleavage site (C); anti-CD19 scFv CAR (CD8 hinge, 4-1BB, CD3zeta) (C); expressed in transfected cells; host or cells: Jurkat T cells, lentiviral transduction
Method: The scFvs used in the CAR constructs that were assessed in Examples 3 were independently synthesized based on an anti-CD19 scFv sequence described above. […] The proteins used in the furin-degron constructs that were assessed in Examples 4-5 were independently synthesized based on publicly available sequence data.
Jurkat cell lines were transduced by spinoculation with lentiviral supernatant from 293T cells transfected with pELPS using the protein-furin domain regulated plasmid DNA.
Trimethoprim (TMP) was resuspended in DMSO. In all instances where concentrations not indicated, compounds were added for 24 hours in total prior to analysis by flow cytometry.
FKBPFD transduced cells treated with 1 μM Shield1. ERαFD transduced cells treated with 1 μM Bazedoxifene. DHFRFD transduced cells treated with 1 mM TMP. […] Black=UTD; Gray=construct, no compound; White=construct, compound.

CD19rev CAR T cells = test: Titration of Shield-1 in CD19rev CAR T cells (remaining CAR+ cells, flow cytometry); type: cell-based; conditions: different doses of Shield-1 for 24 h
Method: FIG. 37 is a series of flow cytometry graphs depicting the titration of Shield-1 in CD19rev CAR. CD19rev CAR T cells (˜38% transduced) were incubated in different doses of Shield-1 for 24 h to assess dose-dependent caspase-9 acitvation. The remaining CAR+ cells were quantified by flow cytometry.

[5] = tested on: NALM6, a CD19+ target cell line; test: Cytokine secretion in co-culture with target cells; conditions: presence or absence of bazedoxifene; 20 hours; versus parental CAR19
CD19+ NALM6 cells = test: Proliferation assay in co-culture with target cells (FACS, counting beads); conditions: presence or absence of bazedoxifene; 4 days; versus parental CAR19

T2 sequence (P62942 with tags, fused parts or gaps F37V): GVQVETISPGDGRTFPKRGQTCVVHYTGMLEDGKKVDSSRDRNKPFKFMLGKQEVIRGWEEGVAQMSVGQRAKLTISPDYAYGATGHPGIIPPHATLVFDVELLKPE

## CC[C@H](C(=O)N1CCCC[C@H]1C(=O)O[C@H](CCc1ccc(OC)c(OC)c1)c1cccc(OCC(=O)NCCNC(=O)COc2cccc([C@@H](CCc3ccc(OC)c(OC)c3)OC(=O)[C@@H]3CCCCN3C(=O)[C@@H](CC)c3cc(OC)c(OC)c(OC)c3)c2)c1)c1cc(OC)c(OC)c(OC)c1 [AP1903]
CD19 sCAR T cells [1]; >2 weeks after AP1903 treatment
  T cells in spleen (human CD3 staining): T cells are not detectable
CD19 sCAR T cells [1]; AP1903 10 mg/kg on day 10, versus vehicle, 10 mg/kg
  Peripheral T cells (CD3+, CD45+): T cells are hardly detectable after suicide activation; also recorded: the T cell percentages drop in the AP1903 group
CD19 sCAR T cells [1]; AP1903 versus vehicle treated mice
  sCAR T cells in spleen (quantitative PCR): near-total sCAR absence in most mice
Universal sCAR T cells
  sCAR T cells in peripheral blood (qPCR, WPRE copy number): can be depleted with AP1903 treatment; also recorded: near-total sCAR absence in 2/3 mice

## CC[C@H](C(=O)N1CCCC[C@H]1C(=O)O[C@H](CCc1ccc(OC)c(OC)c1)c1cccc(OCC(=O)NCC(CNC(=O)COc2cccc([C@@H](CCc3ccc(OC)c(OC)c3)OC(=O)[C@@H]3CCCCN3C(=O)[C@@H](CC)c3cc(OC)c(OC)c(OC)c3)c2)CN(C)C)c1)c1cc(OC)c(OC)c(OC)c1 [AP20187]
Nontransduced T cells
  Cell death after AP20187: no cell death
CD19 sCAR T cells [2]
  Cell death after AP20187: specifically killed; also recorded: specific and robust elimination of CD19 sCAR T cells

## Oc1ccc2c(c1)CC[C@H](c1ccccc1)[C@@H]2c1ccc(OCCN2CCCC2)cc1 [Lasofoxifene]
[3]
  CAR 19 expression: can induce CAR 19 expression

## CC[C@H](C(=O)N1CCCC[C@H]1C(=O)O[C@H](CCc1ccc(OC)c(OC)c1)c1cccc(OCCN2CCOCC2)c1)c1cc(OC)c(OC)c(OC)c1 [Shield1, Shield-1]
CD20 on-CAR; CD20 on-CAR T cells
  CAR expression (MFI) versus Shield-1 concentration: dose-dependent increase in CAR expression
CD20 on-CAR; absence of Shield-1
  reduction of CD20 on-CAR expression: ~60%
[4]
  Expression of the anti-CD19 scFv: inducible in the presence of compound; also recorded: inducible by the stabilizing compound
  Kinetics of CAR expression following compound addition: occurs rapidly following compound addition and is stable throughout the period of compound treatment
CD19rev CAR T cells
  caspase-9 activation and apoptosis (proportion of CAR+ cells): lower doses of Shield-1 result in higher caspase-9 activation and increased apoptosis

B1: construct #106: ERα furin degron (ERmut1) fused to anti-CD19 scFV CAR; furin site GTGAEDPRPSRKRRSLGDVG (SEQ ID NO: 125) (protein)
chain: RSSLALSLTADQMVSALLDAEPPILYSEYDPTRPFSEASMMGLLTNLADRELVHMINWAKRVPGFVDLALHDQVHLLECAWMEILMIGLVWRSMEHPGKLLFAPNLLLDRNQGKCVEGGVEIFDMLLATSSRFRMMNLQGEEFVCLKSIILLNSGVYTFLSSTLKSLEEKDHIHRVLDKITDTLIHLMAKAGLTLQQQHQRLAQLLLILSHIRHMSSKRMEHLYSMKCKNVVPLSDLLLEMLDAHRLGTGAEDPRPSRKRRSLGDVGEIVMTQSPATLSLSPGERATLSCRASQDISKYLNWYQQKPGQAPRLLIYHTSRLHSGIPARFSGSGSGTDYTLTISSLQPEDFAVYFCQQGNTLPYTFGQGTKLEIKGGGGSGGGGSGGGGSQVQLQESGPGLVKPSETLSLTCTVSGVSLPDYGVSWIRQPPGKGLEWIGVIWGSETTYYSSSLKSRVTISKDNSKNQVSLKLSSVTAADTAVYYCAKHYYYGGSYAMDYWGQGTLVTVSSTTTPAPRPPTPAPTIASQPLSLRPEACRPAAGGAVHTRGLDFACDIYIWAPLAGTCGVLLLSLVITLYCKRGRKKLLYIFKQPFMRPVQTTQEEDGCSCRFPEEEEGGCELRVKFSRSADAPAYKQGQNQLYNELNLGRREEYDVLDKRRGRDPEMGGKPRRKNPQEGLYNELQKDKMAEAYSEIGMKGERRRGKGHDGLYQGLSTATKDTYDALHMQALPPR
[5]
  levels of IFNγ: secrete IFNγ in the presence of CD19+ tumor cells, in a manner that is stabilizing compound dose-dependent and is noninferior to the parental CAR construct
CD19+ NALM6 cells
  Proliferation: proliferate in the presence of CD19+ tumor cells, in a manner that is stabilizing compound-dependent and is noninferior to the parental CAR19 construct
